Measured values taken from patent publication US12358999B2, “Protein recognizing drug moiety of antibody-drug conjugate” (DAIICHI SANKYO COMPANY, LIMITED, priority 2018, dated 2025).
Counter-ions that a name gives are not always drawn.

T1: topoisomerase I (Homo sapiens, UniProt P11387)
T1 sequence (P11387 1-765): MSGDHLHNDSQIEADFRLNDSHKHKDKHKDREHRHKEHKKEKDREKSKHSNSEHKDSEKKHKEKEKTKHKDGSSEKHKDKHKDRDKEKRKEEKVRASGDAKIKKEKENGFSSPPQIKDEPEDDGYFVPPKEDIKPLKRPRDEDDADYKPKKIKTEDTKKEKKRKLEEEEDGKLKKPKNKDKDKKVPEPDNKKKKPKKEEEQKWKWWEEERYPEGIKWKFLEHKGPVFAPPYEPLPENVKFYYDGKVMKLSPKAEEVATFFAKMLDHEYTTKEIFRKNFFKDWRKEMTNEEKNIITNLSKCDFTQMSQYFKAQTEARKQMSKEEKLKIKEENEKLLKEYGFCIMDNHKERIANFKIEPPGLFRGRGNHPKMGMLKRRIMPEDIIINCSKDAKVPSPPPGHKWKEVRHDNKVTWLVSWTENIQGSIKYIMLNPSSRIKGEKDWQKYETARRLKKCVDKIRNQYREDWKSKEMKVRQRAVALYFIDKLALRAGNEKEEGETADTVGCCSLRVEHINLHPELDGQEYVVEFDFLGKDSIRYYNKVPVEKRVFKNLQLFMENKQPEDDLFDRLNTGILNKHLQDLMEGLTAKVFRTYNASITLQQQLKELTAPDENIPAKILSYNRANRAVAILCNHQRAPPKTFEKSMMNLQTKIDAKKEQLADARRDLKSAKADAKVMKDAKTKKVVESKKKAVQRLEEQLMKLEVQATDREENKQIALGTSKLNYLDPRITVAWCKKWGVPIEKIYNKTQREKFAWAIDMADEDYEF

B1: rabbit chimeric antibody 1A3: rabbit chimeric antibody derived from mouse antibody 1A3; heavy chain SEQ ID NO: 19, light chain SEQ ID NO: 20 (antibody)
heavy: MKHLWFFLLLVAAPRWVLSEVKLVESGGGLVQPGGSRKLSCAASGFTFSDYGMVWIRQAPGRGLEWVAYISSGSSAIYYADTVKGRFTISRDNPKNTLFLQMNSLRSEDSAMYFCARPPRYDVYSAWFAYWGQGTLVTVSAGQPKAPSVFPLAPCCGDTPSSTVTLGCLVKGYLPEPVTVTWNSGTLTNGVRTFPSVRQSSGLYSLSSVVSVTSSSQPVTCNVAHPATNTKVDKTVAPSTCSKPTCPPPELLGGPSVFIFPPKPKDTLMISRTPEVTCVVVDVSQDDPEVQFTWYINNEQVRTARPPLREQQFNSTIRVVSTLPITHQDWLRGKEFKCKVHNKALPAPIEKTISKARGQPLEPKVYTMGPPREELSSRSVSLTCMINGFYPSDISVEWEKNGKAEDNYKTTPAVLDSDGSYFLYNKLSVPTSEWQRGDVFTCSVMHEALHNHYTQKSISRSPGK
light: MVLQTQVFISLLLWISGAYGDIVMTQSHKFMSTSVGDRVSITCKASQDVGSAVVWYQQKPGHSPDLLIYWASTRHTGVPDRFTGSGSGTDFTLTIGNVQSEDLADYFCQQYSSYPVTFGGGTKLEIKRDPVAPSVLLFPPSKEELTTGTATIVCVANKFYPSDITVTWKVDGTTQQSGIENSKTPQSPEDNTYSLSSTLSLTSAQYNSHSVYTCEVVQGSASPIVQSFNRGDC

Experiments:
[1] = system: sera of BALB/c mice and BDF1 mice after immunization; assay: Inhibition ELISA of immunized mouse sera on immobilized antigen protein (2); format: binding; conditions: sera diluted 50000 fold; compound 12.5-100 μg/mL
Procedure: To the sera of BALB/c mice (4 individuals) and BDF1 mice (4 individuals) after immunization through four administrations, compound (6), compound (7) and compound (1) as positive controls and compound (8) as a negative control were added and the unabsorption rate to antigen protein (2) was calculated. The mouse sera diluted to 50000 fold and compound (6), compound (8), compound (7) and compound (1), which were prepared to have a concentration of 12.5, 25, 50 and 100 μg/mL, were mixed and allowed to react at 4° C. overnight, and then, added to ELISA immunoplates having the antigen protein (2) immobilized thereon and allowed to react at 37° C. for 30 minutes. After washing, anti-mouse IgG-HRP was allowed to react at 37° C. for 30 minutes. After washing, an OPD solution was added. After termination of color development, absorbance at 490 nm was measured. The unabsorption rate was calculated in accordance with the following expression: Unabsorption rate(%)=(a/b)×100
a: Absorbance of positive control or negative control at an addition concentration of 12.5 μg/mL
b: Absorbance of a sample not containing positive control or a sample not containing a negative control

mouse antibody 1A3 = assay: Competitive inhibition with HER2-ADC (I), chemical structure recognized by mouse antibody 1A3 (Gyrolab); format: binding; conditions: compound 1 and 100 μg/mL dilution solutions; response at HER2-ADC (I) 250 ng/mL
Description: The chemical structure to be recognized by mouse antibody 1A3 was checked by competitive inhibition with HER2-ADC (I) using Gyrolab xP workstation (GYROS PROTEIN Technologies). As the compound for use in competitive inhibition, compound (1), compound (2), compound (7), compound (8), compound (9), compound (10), compound (11), Topotecan and Rubitecan were selected.
As the capture reagent, mouse antibody 1A3 labeled with biotin by a labeling kit (ChromaLink Biotin Protein LABELING Kit, Solulink) was used. The concentration thereof was controlled to be 700 nM with 0.1% PS20-containing PBS. The compounds for use in competitive inhibition, compound (1), compound (2), compound (7), compound (8), compound (9), compound (10), compound (11), Topotecan and Rubitecan were separately dissolved in DMSO. The solutions each was diluted with 10% or 20% DMSO in Rexxip HN (GYROS PROTEIN Technologies) to prepare 0, 1 and 100 μg/mL dilution solutions. To each of them, the 700 nM mouse antibody 1A3 solution was added in an equal amount. The mixture was stirred and allowed to react at room temperature in a dark place for one hour or more. The concentration of HER2-ADC (I) was controlled with Rexxip HN to be 0, 0.244, 0.977, 3.91, 15.6, 62.5, 250 and 1000 ng/mL. As the detection reagent, Mouse Anti-(Anti-HER2 Ab) idiotype Ab (13C1) (IBL) was labeled by DyLight650 (registered trademark) labeling kit and put in use. The concentration thereof was controlled with Rexxip F (GYROS PROTEIN Technologies) to be 10 nM. The above solution was set at Gyrolab xP workstation and measurement was carried out by use of Gyrolab Bioaffy 200 at 200-3W-002-A (PMT5). The regression analysis was carried out by use of Gyrolab Evaluator 3.4.0.24 in 4-parametric logistic model (weight: Response). The calibration curve of HER2-ADC (I) was prepared per concentration of the competitive inhibition compound. The inhibition rate (%) was calculated by comparing the response at an HER2-ADC (I) concentration of 250 ng/mL to that of the case where no compound was added (concentration 0 ng/mL).

topoisomerase I = biological target: T1, topoisomerase I; conditions: cited from earlier work
TROP2-ADC (I) = assay: Immunostaining with rabbit chimeric antibody 1A3, FaDu subcutaneous tumor after TROP2-ADC (I); format: binding, nude mouse
Procedure: To an immunodeficient mouse (nude mouse), human head and neck cancer cell line FaDu was subcutaneously transplanted. After TROP2-ADC (I) was administered, the tumor tissue was taken to prepare paraffin-embedded specimens. Then, stainability of rabbit chimeric antibody 1A3 was examined. The tumor tissue was taken from a nude mouse to which an anti-TROP2 antibody (an antibody comprising a heavy chain consisting of amino acid sequence of amino acid residues 20 to 470 of SEQ ID NO: 25 and a light chain consisting of amino acid sequence of amino acid residues 21 to 234 of SEQ ID NO: 26, hereinafter referred to as “Anti-TROP2 Ab”) and used as a negative control. Deparaffinization and antigen activation were carried out using Autostainer Link pretreatment system (PT Link, manufactured by DAKO) and an antigen retrieval solution (Target Retrieval Solution Low pH, manufactured by DAKO) at 97° C. for 40 minutes. The following staining operation was carried out using an automatic staining device (Dako Autostainer Link 48: manufactured by DAKO) at room temperature. After washing once with EnVision FLEX WASH BUFFER (manufactured by DAKO), REAL Peroxidase-Blocking Solution (manufactured by DAKO) was added; incubation was carried out for 5 minutes; and washing was carried out once with EnVision FLEX WASH BUFFER. […]

GPR20-ADC (I) = assay: Immunostaining with rabbit chimeric antibody 1A3, GIST-T1/GPR20 subcutaneous tumor after GPR20-ADC (I); format: binding, nude mouse

| Molecule | inhibition effect on binding of mouse sera to antigen protein (2) (unabsorption rate) [1] | competitive inhibition of recognition of mouse antibody 1A3 to HER2-ADC (I) (inhibition rate, FIG. 41) (mouse antibody 1A3) | other results |
| --- | --- | --- | --- |
| CC[C@@]1(O)C(=O)OCc2c1cc1n(c2=O)Cc2c-1nc1cc(F)c(C)c3c1c2[C@@H](NC(=O)CCCNC(=O)CCCCCCC(=O)ON1C(=O)CCC1=O)CC3 [compound (6), 8-[(2,5-dioxopyrrolidin-1-yl)oxy]-N-(4-{[(1S,9S)-9-ethyl-5-fluoro-9-hydroxy-4-methyl-10,13-dioxo-2,3,9,10,13,15-hexahydro-1H,12H-benzo[de]pyrano[3′,4′:6,7]indolizino[1,2-b]quinolin-1-yl]amino}-4-oxobutyl)-8-oxooctane Amide] | high inhibition effect | – | – |
| CC[C@@]1(O)C(=O)OCc2c1cc1n(c2=O)Cc2c-1nc1ccc(C)c3c1c2CCC3 [compound (9)] | – | strong competitive inhibition | – |
| NCCCC(=O)NC1CCCCC1 [compound (8), 4-amino-N-cyclohexyl-butanamide Hydrochloride] | in none of the plasmas, a high inhibition effect | did not exhibit competitive inhibition | – |
| CC[C@]1(O)c2cc3n(c(=O)c2COC1O)Cc1c-3nc2cc(F)c(C)c3c2c1[C@@H](NC(=O)CCCN)CC3 (stereo partly drawn) [compound (7), 4-amino-N-[(1S,9S)-9-ethyl-5-fluoro-9,10-dihydroxy-4-methyl-13-oxo-2,3,9,10,13,15-hexahydro-1H,12H-benzo[de]pyrano[3′,4′:6,7]indolizino[1,2-b]quinolin-1-yl] butanamide Trifluoroacetate] | in some individuals have a high inhibition effect | strong competitive inhibition | – |
| CC[C@@]1(O)C(=O)OCc2c1cc1n(c2=O)Cc2c-1nc1cc(F)c(C)c3c1c2[C@@H](N)CC3 [compound (1), (1S,9S)-1-amino-9-ethyl-5-fluoro-1,2,3,9,12,15-hexahydro-9-hydroxy-4-methyl-10H,13H-benzo[de]pyrano[3′,4′:6,7]indolizino[1,2-b]quinoline-10,13-dione, reference compound] | high inhibition effect | strong competitive inhibition | topoisomerase I inhibitory activity (topoisomerase I): topoisomerase I inhibitory activity |
| CC[C@@]1(O)C(=O)OCc2c1cc1n(c2=O)Cc2cc3c([N+](=O)[O-])cccc3nc2-1 [Rubitecan] | – | did not exhibit competitive inhibition | – |
| CC[C@@]1(O)C(=O)OCc2c1cc1n(c2=O)Cc2c-1nc1cccc3c1c2C(N)CC3 (some centres unmarked) [compound (10)] | – | did not exhibit competitive inhibition | – |
| CC[C@@]1(O)C(=O)OCc2c1cc1n(c2=O)Cc2c-1nc1cc(F)c(CO)c3c1c2[C@@H](N)CC3 [compound (11)] | – | did not exhibit competitive inhibition | – |
| CC[C@@]1(O)C(=O)OCc2c1cc1n(c2=O)Cc2cc3c(CN(C)C)c(O)ccc3nc2-1 [Topotecan] | – | did not exhibit competitive inhibition | – |
| B1 | – | – | stainability to subcutaneous tumor tissue (TROP2-ADC (I); animal administered with TROP2-ADC (I), antibody 0.1 μg/mL): satisfactory stainability; stainability to subcutaneous tumor tissue (TROP2-ADC (I); animal administered with anti-TROP2 Ab (negative control tissue)): did not show stainability; stainability to subcutaneous tumor tissue (GPR20-ADC (I); animal administered with GPR20-ADC (I)): satisfactory stainability; stainability to subcutaneous tumor tissue (GPR20-ADC (I); animal not administered with GPR20-ADC (I)): did not show stainability |
